In ChEMBL document CHEMBL4627344, “Synthesis, biological evaluation and virtual screening of some acridone derivatives as potential anticancer agents” (2020):

Assays:
Assay type in all cases: functional
HL-60(TB) [1] = assay: Antiproliferative activity against human HL-60(TB) cells assessed as inhibition of cell growth at 10 uM measured after 48 hrs by SRB assay relative to control; conditions: HL-60, 48 h, read-out: GI
NCI-H522 = assay: Antiproliferative activity against human NCI-H522 cells assessed as inhibition of cell growth at 10 uM measured after 48 hrs by SRB assay relative to control; conditions: NCI-H522, 48 h, read-out: GI
HCT-116 [2] = assay: Antiproliferative activity against human HCT116 cells assessed as inhibition of cell growth at 10 uM measured after 48 hrs by SRB assay relative to control; conditions: HCT-116, 48 h, read-out: GI
HCT-15 = assay: Antiproliferative activity against human HCT15 cells assessed as inhibition of cell growth at 10 uM measured after 48 hrs by SRB assay relative to control; conditions: HCT-15, 48 h, read-out: GI
HT-29 = assay: Antiproliferative activity against human HT-29 cells assessed as inhibition of cell growth at 10 uM measured after 48 hrs by SRB assay relative to control; conditions: HT-29, 48 h, read-out: GI
SW-620 [3] = assay: Antiproliferative activity against human SW620 cells assessed as inhibition of cell growth at 10 uM measured after 48 hrs by SRB assay relative to control; conditions: SW-620, 48 h, read-out: GI
SF-295 = assay: Antiproliferative activity against human SF295 cells assessed as inhibition of cell growth at 10 uM measured after 48 hrs by SRB assay relative to control; conditions: SF-295, 48 h, read-out: GI
SNB-75 = assay: Antiproliferative activity against human SNB75 cells assessed as inhibition of cell growth at 10 uM measured after 48 hrs by SRB assay relative to control; conditions: SNB-75, 48 h, read-out: GI
UACC-62 = assay: Antiproliferative activity against human UACC62 cells assessed as inhibition of cell growth at 10 uM measured after 48 hrs by SRB assay relative to control; conditions: UACC-62, 48 h, read-out: GI
OVCAR-3 = assay: Antiproliferative activity against human OVCAR3 cells assessed as inhibition of cell growth at 10 uM measured after 48 hrs by SRB assay relative to control; conditions: OVCAR-3, 48 h, read-out: GI
NCI/ADR-RES = assay: Antiproliferative activity against human NCI-ADR-RES cells assessed as inhibition of cell growth at 10 uM measured after 48 hrs by SRB assay relative to control; conditions: read-out: GI
ACHN = assay: Antiproliferative activity against human ACHN cells assessed as inhibition of cell growth at 10 uM measured after 48 hrs by SRB assay relative to control; conditions: read-out: GI
CAKI-1 [4] = assay: Antiproliferative activity against human CAKI-1 cells assessed as inhibition of cell growth at 10 uM measured after 48 hrs by SRB assay relative to control; conditions: CAKI-1, 48 h, read-out: GI
PC-3 [5] = assay: Antiproliferative activity against human PC3 cells assessed as inhibition of cell growth at 10 uM measured after 48 hrs by SRB assay relative to control; conditions: PC-3, 48 h, read-out: GI
HL-60(TB) [6] = assay: Antiproliferative activity against human HL-60(TB) cells assessed as inhibition of cell growth measured after 48 hrs by SRB assay; conditions: HL-60, 48 h
K562 = assay: Antiproliferative activity against human K562 cells assessed as inhibition of cell growth measured after 48 hrs by SRB assay; conditions: K562, 48 h
MOLT-4 = assay: Antiproliferative activity against human MOLT4 cells assessed as inhibition of cell growth measured after 48 hrs by SRB assay; conditions: MOLT-4, 48 h
A549 = assay: Antiproliferative activity against human A549 cells assessed as inhibition of cell growth measured after 48 hrs by SRB assay; conditions: A549, 48 h
EKVX = assay: Antiproliferative activity against human EKVX cells assessed as inhibition of cell growth measured after 48 hrs by SRB assay
HOP-62 = assay: Antiproliferative activity against human HOP62 cells assessed as inhibition of cell growth measured after 48 hrs by SRB assay; conditions: HOP-62, 48 h
NCI-H322M = assay: Antiproliferative activity against human NCI-H322M cells assessed as inhibition of cell growth measured after 48 hrs by SRB assay
HCC 2998 = assay: Antiproliferative activity against human HCC2998 cells assessed as inhibition of cell growth measured after 48 hrs by SRB assay; conditions: HCC 2998, 48 h
HCT-116 [7] = assay: Antiproliferative activity against human HCT116 cells assessed as inhibition of cell growth measured after 48 hrs by SRB assay; conditions: HCT-116, 48 h
KM12 = assay: Antiproliferative activity against human KM12 cells assessed as inhibition of cell growth measured after 48 hrs by SRB assay; conditions: KM12, 48 h
SW-620 [8] = assay: Antiproliferative activity against human SW620 cells assessed as inhibition of cell growth measured after 48 hrs by SRB assay; conditions: SW-620, 48 h
U-251 = assay: Antiproliferative activity against human U251 cells assessed as inhibition of cell growth measured after 48 hrs by SRB assay; conditions: U-251, 48 h
LOX IMVI = assay: Antiproliferative activity against human LOXIMVI cells assessed as inhibition of cell growth measured after 48 hrs by SRB assay
M14 = assay: Antiproliferative activity against human M14 cells assessed as inhibition of cell growth measured after 48 hrs by SRB assay; conditions: M14, 48 h
MDA-MB-435 = assay: Antiproliferative activity against human MDA-MB-435 cells assessed as inhibition of cell growth measured after 48 hrs by SRB assay; conditions: MDA-MB-435, 48 h
SK-OV-3 = assay: Antiproliferative activity against human SKOV3 cells assessed as inhibition of cell growth measured after 48 hrs by SRB assay; conditions: SK-OV-3, 48 h
CAKI-1 [9] = assay: Antiproliferative activity against human CAKI-1 cells assessed as inhibition of cell growth measured after 48 hrs by SRB assay; conditions: CAKI-1, 48 h
PC-3 [10] = assay: Antiproliferative activity against human PC3 cells assessed as inhibition of cell growth measured after 48 hrs by SRB assay; conditions: PC-3, 48 h
MDA-MB-231 = assay: Antiproliferative activity against human MDA-MB-231 cells assessed as inhibition of cell growth measured after 48 hrs by SRB assay; conditions: MDA-MB-231, 48 h
BT-549 = assay: Antiproliferative activity against human BT549 cells assessed as inhibition of cell growth measured after 48 hrs by SRB assay; conditions: BT-549, 48 h
CCRF-CEM = assay: Antiproliferative activity against human CCRF-CEM cells assessed as inhibition of cell growth at 10 uM measured after 48 hrs by SRB assay relative to control; conditions: read-out: GI
A498 = assay: Antiproliferative activity against human A498 cells assessed as inhibition of cell growth at 10 uM measured after 48 hrs by SRB assay relative to control; conditions: A498, 48 h, read-out: GI

Row | SMILES | inhibition of growth at 10 µM (HL-60(TB) [1]) [%] | inhibition of growth at 10 µM (NCI-H522) [%] | inhibition of growth at 10 µM (HCT-116 [2]) [%] | inhibition of growth at 10 µM (HCT-15) [%] | inhibition of growth at 10 µM (HT-29) [%] | inhibition of growth at 10 µM (SW-620 [3]) [%] | inhibition of growth at 10 µM (SF-295) [%] | inhibition of growth at 10 µM (SNB-75) [%] | inhibition of growth at 10 µM (UACC-62) [%] | inhibition of growth at 10 µM (OVCAR-3) [%] | inhibition of growth at 10 µM (NCI/ADR-RES) [%] | inhibition of growth at 10 µM (ACHN) [%] | inhibition of growth at 10 µM (CAKI-1 [4]) [%] | inhibition of growth at 10 µM (PC-3 [5]) [%] | GI50 (HL-60(TB) [6]) [nM] | GI50 (K562) [nM] | GI50 (MOLT-4) [nM] | GI50 (A549) [nM] | GI50 (EKVX) [nM] | GI50 (HOP-62) [nM] | also measured
1 | O=C1CC(c2ccccc2)Cc2nc3c(Br)cc(Br)cc3cc21 (stereo not drawn) | 95.4 | 91.5 | 93.8 | 89.7 | 91.7 | 77.6 | 132 | 64.8 | 61.7 | 140 | 113 | 70.3 | 98.8 | 77.4 | 226 | 67.6 | 104 | 79.2 | 391 | 180 | GI50 (NCI-H322M): 74.8 nM; GI50 (HCC 2998): 282 nM; GI50 (HCT-116 [7]): 47.8 nM; GI50 (KM12): 242 nM; GI50 (SW-620 [8]): 83.9 nM; GI50 (U-251): 421 nM; GI50 (LOX IMVI): 758 nM; GI50 (M14): 284 nM; GI50 (MDA-MB-435): 211 nM; GI50 (SK-OV-3): 102 nM; GI50 (CAKI-1 [9]): 145 nM; GI50 (PC-3 [10]): 66.6 nM; GI50 (MDA-MB-231): 402 nM; GI50 (BT-549): 541 nM
2 | COc1ccc2nc3c(cc2c1)C(=O)CC(c1ccccc1)C3 (stereo not drawn) | 102 | 84.6 | 88.9 | 75.2 | 90 | 82.2 | 69 | 109 | 63.1 | 107 | 86.8 | 56.1 | 68.7 | 71.2 | 274 | 344 | 431 | 2070 | 5920 | 1960 | inhibition of growth at 10 µM (CCRF-CEM): 89.3%; inhibition of growth at 10 µM (A498): 113%; GI50 (NCI-H322M): 5780 nM; GI50 (HCT-116 [7]): 432 nM; GI50 (KM12): 450 nM; GI50 (SW-620 [8]): 747 nM; GI50 (LOX IMVI): 887 nM; GI50 (M14): 259 nM; GI50 (MDA-MB-435): 137 nM; GI50 (SK-OV-3): 2090 nM; GI50 (CAKI-1 [9]): 525 nM; GI50 (PC-3 [10]): 715 nM; GI50 (MDA-MB-231): 3420 nM; GI50 (BT-549): 2210 nM
